Laboratory results from PMC5419589 (Bioorganic & medicinal chemistry, 2016).

Legend:
[1] = Brain:plasma compound concentration measurements in mice; type: in vivo; conditions: following intraperitoneal injection in mice
[2] = test system: T. brucei brucei (strain TREU667); experiment: Chronic; type: in vivo, mouse; conditions: for relapse with parasites in the blood / suppression of parasitemia during treatment phase: TREU667, 50 mg/kg twice a day oral day 21 to 34; for number of mice free of parasitemia/number of mice in the group: same dosing
[3] = Mouse oral pharmacokinetics; type: in vivo; conditions: mice
[4] = test system: T. brucei brucei strain BF427; experiment: T. brucei growth inhibition assay; type: cell-based, Trypanosoma brucei brucei; conditions: T. brucei EC50 assay
[5] = severe side effects of treatment; cited from earlier work

With `Cl.NCCN(C(=O)c1ccc(Cl)cc1Cl)c1ccc(F)cc1` [Compound 1] the “permeability into brain tissue (in words)” value [1] was “excellent permeability into brain tissue”.
For `CC(C)c1ccc(COc2ccc(N(CCN)C(=O)c3cccnc3C(F)(F)F)cc2)cc1.Cl` [Compound 73], the “relapse with parasites in the blood” value [2] was “all mice relapsed”, the “suppression of parasitemia during treatment phase” value [2] was “complete suppression” and the “oral bioavailability (in words)” value [3] was “orally bioavailable”.
With `Cl.NCCN(C(=O)c1ccc(F)cc1C(F)(F)F)c1ccc(OCc2ccc(Cl)cc2)cc1` [Compound 65, N-(2-Aminoethyl)-N-{4-[(4-chlorophenyl)methoxy]phenyl}-4-fluoro-2-(trifluoromethyl)benzamide hydrochloride] the “activity on T. brucei cells (in words)” value [4] was “single digit nanomolar EC50 values”, the “relapse with parasites in the blood” value [2] was “all mice relapsed” and the “suppression of parasitemia during treatment phase” value [2] was “partial suppression”. The “number of mice free of parasitemia/number of mice in the group” value ([2]; day 35 post-infection, day 1 post-treatment) was 4/4, the “number of mice free of parasitemia/number of mice in the group” value ([2]; day 36 post-infection, day 2 post-treatment) was 4/4 and the “number of mice free of parasitemia/number of mice in the group” value ([2]; day 37 post-infection, day 3 post-treatment) was 2/4. For the same molecule, the “number of mice free of parasitemia/number of mice in the group” value ([2]; day 38 post-infection, day 4 post-treatment) was 1/4, the “number of mice free of parasitemia/number of mice in the group” value ([2]; day 39 post-infection, day 5 post-treatment) was 1/4 and the “number of mice free of parasitemia/number of mice in the group” value ([2]; day 40 post-infection, day 6 post-treatment) was 1/4. For the same molecule, the “number of mice free of parasitemia/number of mice in the group” value ([2]; day 41–42 post-infection, day 7–8 post-treatment) was 1/4, the “number of mice free of parasitemia/number of mice in the group” value ([2]; day 43–45 post-infection, day 9–11 post-treatment) was 1/4 and the “number of mice free of parasitemia/number of mice in the group” value ([2]; day 46–49 post-infection, day 12–15 post-treatment) was 0/4.
For `Nc1nc(N)nc(Nc2ccc([As]3SCC(CO)S3)cc2)n1` (centres unmarked) [Melarsoprol], the fatalities in patients [5] is listed as 3–10%.
